Results as given in paper PMC3566115, “Interaction Domain of Glycoproteins gB and gH of Marek's Disease Virus and Identification of an Antiviral Peptide with Dual Functions” (PLoS ONE, 2013).
“And” between values parts separate entries of the source, which are not always exact repeats. Equal entries are not always repeated. “Also recorded” adds a separate entry of the source. Where two headings read alike, the source gives them in different places. Where no end group is shown, it is not given here.

How the values were obtained:
[1] = individual peptides; previous study; cited from earlier work
Text: In addition, the gBH1 peptide forms a homotrimeric structure with a molecular weight of 10.7 kDa. gHH3 adopts a monomer formation with a molecular weight of 3.8 kDa, and gHH1 forms a homotetramer with a molecular weight of approximately 12.1 kDa. Gel filtration was used to confirm the interactions between peptides. […] As show ...

[2] = test system: MDV strain RB1B; settings: cited from earlier work; for IC50: MDV plaque formation, previous study, read-out: 50% inhibitory concentration (IC50), plaque formation
Text: Our previous study reported that both glycoproteins gB and gH of the herpesvirus Marek's disease virus (MDV) contain eleven potential heptad repeat domains. […] HR1 and HR2 can form of a six-helix bundle structure, which is known as the virus fusion central core and is believed to bring the viral and cellular membranes closer together. […] This observation is in contrast with our results with MDV and other herpesviruses, [29], [33], in which three N-terminal HRs show ...

[3] = test system: MDV strain RB1B; assay type: cell-based, Marek's disease virus; settings: for IC50: plaque formation, CEF cells, co-treatment: 100 pfu MDV incubated with peptide 2 hrs at 37°C, then 5 days in DMEM 2% FBS, triplicate, means ± SD, read-out: antiviral activity IC50; for virucidal activity (in words): virus pre-treatment: virus incubated with peptide at 25 μM for 1 hr at 37°C, then titrated on cell monolayers
Experimental: Primary chicken embryo fibroblasts (CEFs) were cultured as previously described. CEF-associated MDV strain RB1B,which was obtained from the Shandong Agriculture University and passaged multiple times in primary CEFs was incubated for 2 hrs at 37°C. Following incubation, the virus inoculum on the cells was replaced with DMEM supplemented with 2% FBS, and the cultures were incubated for another 5 days longer Consistent and uniform plaques were observed and counted using an Olympus microscope, and images were captured using DP Controller. CEF-associated MDV from the same passage at 2×10^4 plaque forming units (pfu) was used in both infectivity assays in this study.
All peptides were dissolved in DMEM without FBS and used at a range of concentrations. For the antiviral activities of peptides in the co-treatment assay, 100 pfu of MDV was incubated with the peptide at different concentrations for 2 hrs at 37°C. Following incubation, the virus-peptide mixtures on the cells were replaced with DMEM supplemented with 2% FBS, and the cultures were incubated for 5 days. At the end of this period, 50% inhibitory concentrations (IC50) values were calculated. […] For all treatments, unpenetrated virus was inactivated in a low pH buffer after the 45 min incubation with cells at 37°C. The monolayers were incubated for 5 days at 37°C in DMEM supplemented with 2% FBS. The ratio of plaque counts to the no peptide sample control is reported as the percentage of plaque formation (by arithmetic conversion of the mean percent plaque formation). The results are expressed as the average of triplicates ± the standard deviation, and all experiments were performed in parallel with each peptide and a non-specific peptide (i.e., scramble).

[4] = target: gH-derived HR3 peptide (gHH3) (Marek's disease virus strain RB1B); assay: SEC
[5] = target: gH-derived HR3 peptide (gHH3) (Marek's disease virus strain RB1B); assay: SEC; remark: listed apart in the source
[6] = target: gH-derived HR3 peptide (gHH3) (Marek's disease virus strain RB1B)
[7] = target: gB-derived HR1 peptide (gBH1) (Marek's disease virus strain RB1B); assay: SEC
gB-derived HR1 peptide (gBH1) (Marek's disease virus strain RB1B), sequence (P18538 340-367 limits assumed): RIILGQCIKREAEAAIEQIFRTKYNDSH

Compound | Molecular mass of individual peptide in solution by gel filtration [1] | Molecular state of individual peptide [1] | IC50 [2] [µM] | IC50 [3] [µM] | further results
CC[C@H](C)[C@H](NC(=O)[C@H](C)NC(=O)[C@H](C)NC(=O)[C@H](CCC(=O)O)NC(=O)[C@H](C)NC(=O)[C@H](CCC(=O)O)NC(=O)[C@H](CCCNC(=N)N)NC(=O)[C@H](CCCCN)NC(=O)[C@@H](NC(=O)[C@H](CS)NC(=O)[C@H](CCC(N)=O)NC(=O)CNC(=O)[C@H](CC(C)C)NC(=O)[C@@H](NC(=O)[C@@H](NC(=O)[C@@H](N)CCCNC(=N)N)[C@@H](C)CC)[C@@H](C)CC)[C@@H](C)CC)C(=O)N[C@@H](CCC(=O)O)C(=O)N[C@@H](CCC(N)=O)C(=O)N[C@H](C(=O)N[C@@H](Cc1ccccc1)C(=O)N[C@@H](CCCNC(=N)N)C(=O)N[C@H](C(=O)N[C@@H](CCCCN)C(=O)N[C@@H](Cc1ccc(O)cc1)C(=O)N[C@@H](CC(N)=O)C(=O)N[C@@H](CC(=O)O)C(=O)N[C@@H](CO)C(=O)N[C@@H](Cc1c[nH]cn1)C(=O)O)[C@@H](C)O)[C@@H](C)CC [gBH1] | 10.7 kDa | homotrimeric; also recorded: Trimer | < 12 |  | 
EERKKLGEEIKKEAEEAKKQIEETKKNDEE [gHB1-EK] |  |  |  | 8.7 ± 1.29 | 
HMNASDMEIKSYINMIESVEESSNYDF [gHH1] | approximately 12.1 kDa and 12.1 kDa | homotetramer; also recorded: Tetramer | < 12 | 4.1 ± 0.26 | blocking of viral infection in co-treatment and post-treatment assays (in words) ([2]; virus co-treatment (co) and post-treatment (post)): blocked viral infection; virucidal activity (in words) [3]: no or low virucidal activity
KKNEEIIKKLEEKTKKNEEKNKKSEEILKKLEELRKK [gHH3-EK] |  |  |  | 6.3 ± 1.16 | 
NADIIKSLIRKTIINASKNTASLSILQHLYVLRS [gHH3] | 3.8 kDa | Monomer | < 12 | 12.2 ± 0.28 | virucidal activity (in words) [3]: no or low virucidal activity
gB-derived HR1 peptide (gBH1) |  |  |  |  | stoichiometry N [4]: 1; stoichiometry N [5]: 3; antiviral activity IC50 (plaque formation, MDV on CEF cells) of the mixture of the three peptides gHH1+gHH3+gBH1, the same level as gHH1 alone [6]: 4.7 µM
gH-derived HR1 peptide (gHH1) |  |  |  |  | stoichiometry N [7]: 1; stoichiometry N [4]: 3; stoichiometry N [5]: 1
